Patent publication US20090156504A1, “METHODS OF TREATING BLOOD CELL DEPLETION” (ImmuneRegen Biosciences, Inc., priority 2007, published 2009)

Assays:
[1] = test system: Colony Forming Unit-Megakaryocyte (CFU-Mk) cultures; assay: Colony forming unit assay, CFU-Mk (Example 6); assay type: cell-based, human; conditions: for effect of receptor antagonist on substance P-enhanced platelet colony formation: in the presence of substance P
Excerpt: (§1) As stem cells differentiate in response to growth factors, they form a colony of cells with distinct morphologies that can be visualized using a microscope. This study examined the formation of three different progenitor cell populations, erythrocytes, platelets and granulocytes/macrophages.
(§2) Bone marrow aspirates were obtained from three healthy donors between 18 and 35 years of age following appropriate guidelines and protocols. Bone marrow mononuclear cells were isolated using a Ficoll-Hypaque density gradient, separating red blood cells from the others. Cells from each donor were processed independently and used for setting up individual experiments to assess the effects, if any, of donor variability.
(§3) Cells (1×10^5) were plated in duplicate onto 35 mm tissue culture plates for each condition tested and set up as described in Rameshwar et al. 1993, Blood. 81:2, 391-398. Erythroid and granulocyte/macrophage cultures were plated using methylcellulose and megakaryocyte cultures (platelet precursors) used a collagen-based support (StemCell Technologies, Vancouver, Canada, catalogue #04973). […] CP 99,994 (Pfizer) was used as a neurokinin-1 receptor antagonist and SR 48968 (Sanofi) was used as a neurokinin-2 receptor antagonist.
Cultures were set up with limited cytokines and growth factors which would promote differentiation of one progenitor per plate.
Each compound was dissolved in endotoxin-free water to a final concentration of 0.1 mM. After reconstitution, the solutions were aliquoted into siliconized microcentrifuge tubes and exposed to nitrogen gas, eliminating oxygen in the head space of the enclosure. All aliquots were stored at −20° C. until use and used within one month of reconstitution. See, Rameshwar, et al. 1997, J. Immunol.
Cultures were incubated at 37° C. with 5% CO2 for approximately 14 days, after which colonies were manually enumerated using a microscope. […]

[2] = test system: Blast Forming Unit—Erythroid (BFU-E) cultures; assay: Colony forming unit assay, BFU-E (Example 6); assay type: cell-based; conditions: human bone marrow cells, about 14 days, FIG. 1; control = zero level
Excerpt: as §1, §2
as §3, with “antagonist. […]” for “antagonist.”

[3] = test system: Colony Forming Unit—Erythroid (CFU-E) cultures; assay: Colony forming unit assay, CFU-E (Example 6); assay type: cell-based; conditions: human bone marrow cells, about 14 days, FIG. 2
Excerpt: as §1, §2
as §3, with “antagonist. […]” for “antagonist.”

[4] = test system: human bone marrow-derived hematopoietic cell populations; assay: CFC differentiation and ATP proliferation assays, overall statements on the seven cell populations (Examples 4 and 5); assay type: cell-based
Procedure: The compound was dissolved in 1 ml of Iscove's Modified Dulbecco's Medium (IMDM) and a serial dose response prepared in single log doses so that the final dose in culture ranged from 1 nM to 1×10^−16 M. All working dilutions were performed in IMDM.
Starting with human bone marrow aspirate, the mononuclear cell (MNC) fraction was separated from the whole bone marrow using Ficoll-Paque density gradient centrifugation. […] The cell concentration was adjusted so that the final cell concentration in culture was 10,000 cells/well.
Human bone marrow MNC was dissolved in IMDM and cultured at a concentration of 10,000 cell/well in a CAMEO™-96 Master Mix (HemoGenix, Inc., Colorado Springs, Colo.). Master Mix is a HemoGenix proprietary cell culture media comprised of a serum mix (4 parts), a methyl cellulose mix (4 parts) and a growth factor mix (1 part) with the bone marrow target cells (1 part). See, Rich and Hall 2005, Toxicol. Sci. 87(2): 427-441.
Different combinations and concentrations of growth factors are used to induce differentiation of cells into specific cell types. […]
Prior to processing all 96-well plates, the total colony counts/well were manually enumerated by microscopy. The mean, standard deviation and percent coefficient of variation was calculated for all groups, transposed and plotted. The intracellular ATP (iATP) concentration was measured after manual enumeration. The output of the luminometer is non-standardized Relative Luminescence Units (RLU). […] This allowed the RLU values to be automatically calculated into standardized ATP (μM) units. For both the RLU and ATP values derived from each well, the luminometer software calculated the mean, standard deviation and percent coefficient of variation. […]

For RPKPQQFFGLM-NH2 [substance P], the “effective concentration for platelet precursors” value ([1]; approximately 2-fold stimulation) was 10^−8 M, the “BFU-E colony increase from control values” [2] was roughly 60% and the “CFU-E colony formation enhancement from control values” [3] was “about 70%”.

`CC(C)C[C@H](NC(=O)CN(C)C(=O)[C@H](Cc1ccccc1)NC(=O)[C@H](Cc1ccccc1)NC(=O)[C@H](CCC(N)=O)NC(=O)[C@H](CCC(N)=O)NC(=O)[C@@H]1CCCN1C(=O)[C@H](CCCCN)NC(=O)[C@@H]1CCCN1C(=O)[C@@H](N)CCCNC(=N)N)C(=O)N[C@@H](CCS(C)(=O)=O)C(N)=O` [Homspera®] was tested, and the “toxicity to T-CFC and B-CFC” value ([4]; Example 4, levels tested (10^−16 M to 1 nM)) was “do not demonstrate toxicity at the levels tested”, the cytotoxicity ([4]; Example 4, most of populations, 14 days, 10^−16 M to 1 nM) was “apparent absence of distinct cytotoxicity” and the “toxicity in CFC assay” value ([4]; Example 5, three donors, seven cell populations, highest doses (1 nM)) was “no apparent toxicity at the highest doses”.

In the case of `CC(=O)NC1(c2ccccc2)CCN(CC[C@H](CN(C)C(=O)c2ccccc2)c2ccc(Cl)c(Cl)c2)CC1` [SR48968], the “effect of receptor antagonist on substance P-enhanced platelet colony formation” value [1] is reported as “showed no effect on substance P activity”.

`COc1ccccc1CN[C@H]1CCCN[C@H]1c1ccccc1` [CP-99,994] was tested, and the “effect of receptor antagonist on substance P-enhanced platelet colony formation” value [1] was “blocks the stimulatory activity of substance P”.
